Here are results for one substance from patent US20100016242A1, “MYOSIN LIGHT CHAIN KINASE INHIBITORS AND METHODS OF USE” (THE UNIVERSITY OF CHICAGO, priority 2004, published 2010).

The half-life is the time needed for the level to fall by half in the phase considered. Low readings indicate rapid decline, high ones slow decline.

A short description of data set [1]: stability in Caco-2 intestinal epithelial cell extracts (LC-MS). As to conditions: Caco-2 cell extracts. The data set is classed as in vitro ADME. As for the experimental part:
Peptides administered in vivo are susceptible to protease cleavage, particularly those administered to the intestine. PIK, D-PIK, D-PIK(reversed) and D-PIK(int.) were each incubated with rat intestinal fluid and also with Caco-2 intestinal epithelial cell extracts, which contain a mixture brush border and cytosolic proteases. Luminal intestinal secretions were obtained by flushing isolated rat intestines (duodenum to ileum) with 10 ml of 20 mM of N-2-Hydroxyethylpiperazine-N′-2-ethanesulfonic acid (HEPES) buffer, pH 7.4. Discharged contents were centrifuged to remove solids and the supernatant filtered through a 0.20 μm filter prior to determining total protein content. Confluent Caco-2 cells were rinsed with PBS, lifted by brief trypsin treatment into a small volume of Dulbecco's modified Eagles's medium (DMEM) and washed twice with phosphate buffered saline (PBS). […] Protein concentrations of isolated intestinal fluid and lysed Caco-2 cell extracts were determined using the Bio-Rad Protein Assay. […] Samples were centrifuged and supernatants analyzed by LC-MS analysis to determine the cleavage pattern of PIK.
(§1) Residual peptide content was assessed by liquid chromatography-mass spectrometry (Tiller et al., Anal Bioanal Chem 2003; 377:788-802) and positive ion electrospray ionization.

The nature of data set [2]: stability in rat intestinal fluid (LC-MS). It is filed as in vitro ADME. Here is the method:
Peptides administered in vivo are susceptible to protease cleavage, particularly those administered to the intestine. PIK, D-PIK, D-PIK(reversed) and D-PIK(int.) were each incubated with rat intestinal fluid and also with Caco-2 intestinal epithelial cell extracts, which contain a mixture brush border and cytosolic proteases. Luminal intestinal secretions were obtained by flushing isolated rat intestines (duodenum to ileum) with 10 ml of 20 mM of N-2-Hydroxyethylpiperazine-N′-2-ethanesulfonic acid (HEPES) buffer, pH 7.4. Discharged contents were centrifuged to remove solids and the supernatant filtered through a 0.20 μm filter prior to determining total protein content. Confluent Caco-2 cells were rinsed with PBS, lifted by brief trypsin treatment into a small volume of Dulbecco's modified Eagles's medium (DMEM) and washed twice with phosphate buffered saline (PBS). The final cell pellet was re-suspended in a small volume of lysis buffer (50 mM Tris-HCL, 2 mM EDTA, 20% glycerol at pH 7.4) and sonicated on ice. Protein concentrations of isolated intestinal fluid and lysed Caco-2 cell extracts were determined using the Bio-Rad Protein Assay. Peptide inhibitors of MLCK (1 mg/ml) in PBS were mixed with 0.1 mg protein of intestinal secretions or Caco-2 cell lysate on ice and incubated for at 4° C. and 37° C., respectively. At selected times, 100 μl aliquots were withdrawn and mixed with an equal volume of 0.5% TFA (in 50/50 water/acetonitrile) to terminate enzymatic reactions. Samples were centrifuged and supernatants analyzed by LC-MS analysis to determine the cleavage pattern of PIK.
as §1
The peptides listed in Table 2 (0.1 mg) were incubated with rat intestinal fluid (0.2 mg) at 37° C. for 0.5 min to 6 hours.

For the substance “Ac-RKKYKYRRK-NH2 [PIK, Arg-Lys-Lys-Tyr-Lys-Tyr-Arg-Arg-Lys]”, the cleavage pattern entry in data set [1] is reported as “cleaved PIK across the central palindromic sequence”. This substance also came in with a half-life in data set [2] (0.1 mg peptide, rat intestinal fluid (0.2 mg), 37° C.) of 12 s. In addition, the initial cleavage pattern result in data set [2] (rat intestinal fluid) was “peptide bonds at the C-terminal sides of K and R residues of PIK were initially cleaved”. Further, in data set [2] (rat intestinal fluid, extended incubations), the “hydrolysis on extended incubation” value is “total hydrolysis”.
